Measurements from US6117866A, “Bicyclic fibrinogen antagonists” (SmithKline Beecham Corporation, priority 1996, dated 2000).

Tested on: human platelets
Test: Inhibition of Platelet Aggregation (human platelets stimulated with ADP)
Type: cell-based
Details: in vitro

Compound O=C(O)CC1Nc2cc(C(=O)Nc3ccc4c(c3)CNCC4)ccc2CN(CCc2ccccc2)C1=O (racemic) [Example 4, (R,S)-8-[[(1,2,3,4-tetrahydro-7-isoquinolinyl]amino]carbonyl]-2,3,4,5-tetrahydro-3-oxo-4-(2-phenylethyl)-1H-1,4-benzodiazepine-2-acetic acid] has an IC50 of about 75 µM.

With O=C(O)CC1Nc2ccc(C(=O)Nc3ccc4c(c3)CNCC4)cc2CN(CCc2ccccc2)C1=O (racemic) [Example 7, (R,S)-7-[[(1,2,3,4-tetrahydro-7-isoquinolinyl]amino]carbonyl]-2,3,4,5-tetrahydro-3-oxo-4-(2-phenylethyl)-1H-1,4-benzodiazepine-2-acetic acid] the IC50 was 0.2 to 11 µM.

CN(CCC1CCNCC1)C(=O)c1ccc2c(c1)CC(CCC(=O)O)C(=O)N(CCc1ccccc1)C2 (racemic) [Example 22, (R,S)-2,3,4,5-tetrahydro-3-oxo-2-(2-phenylethyl)-7-[[[2-(4-piperidinyl)ethyl]-methylamino]carbonyl]-1H-2-benzazepine-4-propionic acid] was tested, and the IC50 was 0.2 to 11 µM.

O=C(O)CC1Nc2ccc(C(=O)N3CCC(C4CCNCC4)CC3)cc2CN(CCc2ccccc2)C1=O (single isomer, unassigned; (+)) [Example 23, (+)-7-[(4,4'-bipiperidin-1-yl)carbonyl]-2,3,4,5-tetrahydro-3-oxo-4-(phenylethyl)-1H-1,4-benzodiazepine-2-acetic acid] was tested, and the IC50 was 0.2 to 11 µM.

In the case of CN1Cc2cc(C(=O)N3CCC(C4CCNCC4)CC3)ccc2N[C@H](CC(=O)O)C1=O [Example 26, (R)-7-[(4,4'-bipiperidin-1-yl)carbonyl]-2,3,4,5-tetrahydro-4-methyl-3-oxo-1H-1,4-benzodiazepine-2-acetic acid], the IC50 is reported as 0.2 to 11 µM.
